Assay results as given in patent US20260285850A1, “SUBSTITUTED OXAZOLIDINONES AND IMIDAZOLINONES AS HERBICIDES” (FMC CORPORATION, priority 2023, published 2026).

Key:
Assay type in all cases: in vivo
[1] = tested on: sedge, umbrella (small-flower umbrella sedge, Cyperus difformis); assay: Test B flooded paddy test, visual plant response rating 0-100; conditions: 250 g ai/ha, Flood, applied to paddy water, evaluated after 13 days
In short: (§1)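 Greenhouse, 13 d. Seedlings at 2-leaf stage, pots flooded to 3 cm, compound delivered into floodwater, water level held constant. Evaluated visually relative to controls.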

[2] = tested on: ducksalad (Heteranthera limosa); assay: as above; conditions: 250 g ai/ha, Flood, applied to paddy water, evaluated after 13 days
In short: as §1

[3] = tested on: barnyardgrass (Echinochloa crusgalli); assay: as above; conditions: 250 g ai/ha, Flood, applied to paddy water, evaluated after 13 days
In short: as §1

rice (Oryza sativa) = assay: as above; conditions: 250 g ai/ha, Flood, applied to paddy water, evaluated after 13 days
In short: as §1

[4] = tested on: green foxtail (Setaria viridis); assay: Test A postemergence application, visual injury rating 0-100
In short: (§2)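 Plants in a loam and sand soil blend were treated with each test chemical, in a non-phytotoxic solvent system including surfactant, either sprayed on seeded soil before emergence or applied after emergence at the one- to two-leaf stage. Ten days later in the greenhouse, plants were compared with untreated controls and visually rated from 0 (no effect) to 100 (complete control).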

[5] = tested on: blackgrass (Alopecurus myosuroides); assay: as above
In short: as §2

kochia (Bassia scoparia) [6] = assay: as above
In short: as §2

[7] = tested on: horseweed (Erigeron canadensis); assay: as above
In short: as §2

[8] = tested on: galium (catchweed bedstraw, Galium aparine); assay: as above
In short: as §2

[9] = tested on: barnyardgrass (Echinochloa crus-galli); assay: as above
In short: as §2

[10] = tested on: green foxtail (Setaria viridis); assay: Test A preemergence soil spray, visual injury rating 0-100; conditions: 10 days
In short: as §2

[11] = tested on: ryegrass, Italian (italian ryegrass, Lolium multiflorum); assay: as above; conditions: 10 days
In short: as §2

[12] = tested on: blackgrass (Alopecurus myosuroides); assay: as above; conditions: 10 days
In short: as §2

kochia (Bassia scoparia) [13] = assay: as above; conditions: 10 days
In short: as §2

[14] = tested on: ragweed (common ragweed, Ambrosia artemisiifolia); assay: as above; conditions: 10 days
In short: as §2

[15] = tested on: palmer (palmer amaranth, palmer pigweed, Amaranthus palmeri); assay: as above; conditions: 1000 g ai/ha, 10 days, 0 = no effect, 100 = complete control
In short: as §2

[16] = tested on: barnyardgrass (Echinochloa crus-galli); assay: as above; conditions: 10 days
In short: as §2

[17] = tested on: oat, wild (wild oat, Avena fatua); assay: Test A postemergence application, visual injury rating 0-100
In short: as §2

[18] = tested on: ryegrass, Italian (italian ryegrass, Lolium multiflorum); assay: as above
In short: as §2

[19] = tested on: wheat (Triticum aestivum); assay: as above
In short: as §2

soybean (Glycine max) [20] = assay: as above
In short: as §2

[21] = tested on: ragweed (common ragweed, Ambrosia artemisiifolia); assay: as above
In short: as §2

corn (Zea mays) [22] = assay: as above
In short: as §2

[23] = tested on: palmer (palmer amaranth, palmer pigweed, Amaranthus palmeri); assay: as above
In short: as §2

[24] = tested on: oat, wild (wild oat, Avena fatua); assay: Test A preemergence soil spray, visual injury rating 0-100; conditions: 10 days
In short: as §2

[25] = tested on: wheat (Triticum aestivum); assay: as above; conditions: 10 days
In short: as §2

soybean (Glycine max) [26] = assay: as above; conditions: 62 g ai/ha, 10 days, 0 = no effect, 100 = complete control
In short: as §2

corn (Zea mays) [27] = assay: as above; conditions: 10 days
In short: as §2

[28] = Postemergence, 1000 g ai/ha, 0 to 100 scale, 10 days
[29] = 1000 g ai/ha, 0 = no effect, 100 = complete control
[30] = 62 g ai/ha, postemergence, 10 days, 0 = no effect, 100 = complete control
[31] = Postemergence, 16 g ai/ha, greenhouse 10 days, 0 no effect, 100 complete control
[32] = 62 g ai/ha, 0 = no effect, 100 = complete control

SMILES: COC(=O)C1=CCC(NC(=O)C2(C)CN(c3cc(F)cc(F)c3)C(=O)N2)C1 (mixture of isomers) [Compound 181]
- Plant response rating, Sedge, Umbrella (0 to 100 scale, 0 is no effect and 100 is complete control) [1]: 0
- Plant response rating, Ducksalad (0 to 100 scale, 0 is no effect and 100 is complete control) [2]: 30
- Plant response rating, Barnyardgrass (0 to 100 scale, 0 is no effect and 100 is complete control) [3]: 10
- Plant response rating, Rice (0 to 100 scale, 0 is no effect and 100 is complete control) (rice (Oryza sativa)): 15
- Foxtail, Green plant response rating [4, 28]: 90
- Blackgrass plant response rating [5, 28]: 90
- Kochia plant response rating (kochia (Bassia scoparia) [6]; [28]): 80
- Horseweed plant response rating [7, 28]: 10
- Galium plant response rating [8, 28]: 90
- Barnyardgrass plant response rating [9, 28]: 90
- Foxtail, Green plant response rating (0 to 100 scale) [10, 29]: 90
- Ryegrass, Italian plant response rating (0 to 100 scale) [11, 29]: 0
- Blackgrass plant response rating (0 to 100 scale) [12, 29]: 80
- Kochia plant response rating (0 to 100 scale) (kochia (Bassia scoparia) [13]; [29]): 90
- Ragweed plant response rating (0 to 100 scale) [14, 29]: 0
- Amaranth, Palmer / Pigweed, Palmer plant response rating (0 to 100 scale) [15]: 90
- Barnyardgrass plant response rating (0 to 100 scale) [16, 29]: 80

SMILES: CC1(C(=O)NC2CC=C(C(=O)OCC(F)(F)F)C2)CN(c2cc(F)cc(Cl)c2)C(=O)O1 (stereo not drawn) [Compound 142]
- Plant response rating, Sedge, Umbrella (0 to 100 scale, 0 is no effect and 100 is complete control) [1]: 0
- Plant response rating, Ducksalad (0 to 100 scale, 0 is no effect and 100 is complete control) [2]: 0
- Plant response rating, Barnyardgrass (0 to 100 scale, 0 is no effect and 100 is complete control) [3]: 0
- Plant response rating, Rice (0 to 100 scale, 0 is no effect and 100 is complete control) (rice (Oryza sativa)): 0
- Foxtail, Green plant response rating (0-100) [4, 30]: 0
- Foxtail, Green plant response rating (0 to 100 scale) [4, 31]: 0
- Oat, Wild plant response rating (0-100) [17, 30]: 0
- Oat, Wild plant response rating (0 to 100 scale) [17, 31]: 0
- Ryegrass, Italian plant response rating (0-100) [18, 30]: 0
- Ryegrass, Italian plant response rating (0 to 100 scale) [18, 31]: 0
- Wheat plant response rating (0-100) [19, 30]: 0
- Wheat plant response rating (0 to 100 scale) [19, 31]: 0
- Blackgrass plant response rating (0-100) [5, 30]: 0
- Blackgrass plant response rating (0 to 100 scale) [5, 31]: 0
- Kochia plant response rating (0-100) (kochia (Bassia scoparia) [6]; [30]): 0
- Kochia plant response rating (0 to 100 scale) (kochia (Bassia scoparia) [6]; [31]): 0
- Soybean plant response rating (0-100) (soybean (Glycine max) [20]; [30]): 0
- Soybean plant response rating (0 to 100 scale) (soybean (Glycine max) [20]; [31]): 0
- Ragweed plant response rating (0-100) [21, 30]: 0
- Ragweed plant response rating (0 to 100 scale) [21, 31]: 0
- Horseweed plant response rating (0-100) [7, 30]: 0
- Horseweed plant response rating (0 to 100 scale) [7, 31]: 0
- Corn plant response rating (0-100) (corn (Zea mays) [22]; [30]): 0
- Corn plant response rating (0 to 100 scale) (corn (Zea mays) [22]; [31]): 0
- Pigweed, Palmer plant response rating (0-100) [23, 30]: 0
- Pigweed, Palmer plant response rating (0 to 100 scale) [23, 31]: 0
- Galium plant response rating (0-100) [8, 30]: 0
- Galium plant response rating (0 to 100 scale) [8, 31]: 0
- Barnyardgrass plant response rating (0-100) [9, 30]: 0
- Barnyardgrass plant response rating (0 to 100 scale) [9, 31]: 0
- Foxtail, Green plant response rating ([10]; 16 g ai/ha, 0 to 100 scale): 0
- Foxtail, Green plant response rating (0-100) [10, 32]: 0
- Oat, Wild plant response rating ([24]; 16 g ai/ha, 0 to 100 scale): 0
- Oat, Wild plant response rating (0-100) [24, 32]: 0
- Ryegrass, Italian plant response rating ([11]; 16 g ai/ha, 0 to 100 scale): 0
- Ryegrass, Italian plant response rating (0-100) [11, 32]: 0
- Wheat plant response rating ([25]; 16 g ai/ha, 0 to 100 scale): 0
- Wheat plant response rating (0-100) [25, 32]: 0
- Blackgrass plant response rating ([12]; 16 g ai/ha, 0 to 100 scale): 0
- Blackgrass plant response rating (0-100) [12, 32]: 0
- Kochia plant response rating (kochia (Bassia scoparia) [13]; 16 g ai/ha, 0 to 100 scale): 0
- Kochia plant response rating (0-100) (kochia (Bassia scoparia) [13]; [32]): 0
- Soybean plant response rating (0-100) (soybean (Glycine max) [26]): 0
- Ragweed plant response rating ([14]; 16 g ai/ha, 0 to 100 scale): 0
- Ragweed plant response rating (0-100) [14, 32]: 0
- Corn plant response rating (corn (Zea mays) [27]; 16 g ai/ha, 0 to 100 scale): 0
- Corn plant response rating (0-100) (corn (Zea mays) [27]; [32]): 0
- Barnyardgrass plant response rating ([16]; 16 g ai/ha, 0 to 100 scale): 0
- Barnyardgrass plant response rating (0-100) [16, 32]: 0
